Measured values taken from patent US20050222264A1, “Anti-rhinovirus active agents” (UNIHART CORPORATION, priority 2002, published 2005).

Columns and labels:
Format in all cases: cell-based, Human Rhinoviruses
Settings in all cases: count after 3 days
[1] = system: Rhinovirus M Strain; assay: Plaques assay on cell mono-layers, Rhinovirus M strain, MKC-5
Procedure: (§1) The activity of the above compounds was evaluated in a plaque inhibition assay carried out on mono-layers of kidney cells from Rhesus monkey and from WI38 and Ohio-HeLa human cells, suitable for the propagation of Rhinoviruses M and H strains respectively. In this assay, the addition to the culture medium of an agent able to impede the viral penetration in the cells reduces the formation of microplaques compared with an untreated control culture. Therefore, the effectiveness of the test compound can be determined by counting the microplaques in treated and non-treated cultures after exposure to the virus.
(§2) • 1. prepare confluent kidney cell mono-layers from Rhesus monkeys and from human cell lines (WI 38, MRC-5 and Ohio-Hela cells) in 6.75 cm Ø Petri dishes; • 2. aspirate the growth medium; • 3. wash each dish with 10 ml of culture medium (serum-free growth medium), Earle's saline solution—lactoalbumine hydrolysate and incubate at 33° C. for 60′; • 4. aspirate the liquid; • 5. prepare serial 1:10 viral dilutions (Rhinovirus-strain M and Rhinovirus-strain H) in Earle's saline solution—lactoalbumine hydrolysate and inoculate each dish with 0.2 ml volumes of viral dilution. Each viral dilution is inoculated in duplicate. • 6. Prepare analogous serial viral dilutions (as in 5) in Earle's saline solution—lactoalbumine hydrolysate, added with the anti-viral test compound at the desired concentration. • 7. Prepare Earle's saline solution—lactoalbumine hydrolysate added with the test anti-viral compound at the desired concentration as the control (one control for each test compound). • 8. incubate the infected mono-layers at 33° C. for 60′, gently rocking the dishes at 15′ intervals in order to evenly distribute the inoculum; • 9. place the dishes on a flat surface; • 10. thoroughly add 10 ml of nutritive agar in Earle's saline solution—calf serum, equilibrated at 44° C., to each dish and allow to harden. […]

[2] = system: Rhinovirus H Strain; assay: Plaques assay on cell mono-layers, Rhinovirus H strain, Ohio-HeLa
Procedure: as §1, §2

[3] = system: Rhinovirus H Strain; assay: Plaques assay on cell mono-layers, Rhinovirus H strain, WI38
Procedure: as §1
• 1. prepare confluent kidney cell mono-layers from Rhesus monkeys and from human cell lines (WI 38, MRC-5 and Ohio-Hela cells) in 6.75 cm Ø Petri dishes; • 2. aspirate the growth medium; • 3. wash each dish with 10 ml of culture medium (serum-free growth medium), Earle's saline solution—lactoalbumine hydrolysate and incubate at 33° C. for 60′; • 4. aspirate the liquid; • 5. prepare serial 1:10 viral dilutions (Rhinovirus-strain M and Rhinovirus-strain H) in Earle's saline solution—lactoalbumine hydrolysate and inoculate each dish with 0.2 ml volumes of viral dilution. Each viral dilution is inoculated in duplicate. • 6. […]

[4] = dilution of inoculated virus 10^−3, same molar concentration of a 12.5 γ/ml xenaldial solution
[5] = dilution of inoculated virus 10^−4, same molar concentration of a 12.5 γ/ml xenaldial solution
[6] = dilution of inoculated virus 10^−5, same molar concentration of a 12.5 γ/ml xenaldial solution

CCOC(Nc1ccc(C(=O)O)cc1)C(=O)c1ccc(-c2ccccc2)cc1 (stereo not drawn) [Xenalamine, p-(α-ethoxy-p-phenyl-phenacylamino)-benzoic acid, reference compound]
n° of plaques in 2 dishes [1, 4]: 4
n° of plaques in 2 dishes [1, 5]: 2
n° of plaques in 2 dishes [1, 6]: 1
n° of plaques in 2 dishes [2, 4]: 2
n° of plaques in 2 dishes [2, 5]: 1
n° of plaques in 2 dishes [2, 6]: 1
n° of plaques in 2 dishes [3, 4]: 3
n° of plaques in 2 dishes [3, 5]: 1
